Eleven compounds from ChEMBL document CHEMBL1201862, “PubChem BioAssay data set” (2004) can be followed below.

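Method: 48-hour compound exposure of cells in 96-well plates, five concentrations, linear interpolation of endpoints. GI50: concentration for 50% inhibition of growth.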 Calls of active or inactive are those of the source. Rule as the data show it: active = GI50 up to about 1.1 µM and inactive = higher. A value given as a limit tells only on which side of the number the result lay.

Some test systems named below: OVCAR-4; SK-OV-3; Malme-3M; A549; NCI/ADR-RES; SF-268; DU-145; LOX IMVI; HT-29; SN12C; ACHN; SW-620; RPMI-8226; HOP-62; UO-31; NCI-H460; KM12; MDA-MB-435; HOP-92; HL-60.
What all share (test): inhibition of tumour cell growth, NCI panel, 48 h

With `O=C1c2cc(Cl)ccc2N=C(NC2CCCC2)C2CSCN12` (configuration not stated), the GI50 in the test on OVCAR-4 was > 100 µM (inactive); with SK-OV-3, > 100 µM (inactive); with Malme-3M, > 100 µM (inactive); in the test on A549, > 100 µM (inactive); in the test with NCI/ADR-RES, > 100 µM (inactive); with SF-268, 66.5 µM (inactive). Also, the GI50 is > 100 µM (inactive) in the test with DU-145; > 100 µM (inactive) in the test on LOX IMVI; 28.9 µM (inactive) in the test on HT-29; > 100 µM (inactive) with SN12C; > 100 µM (inactive) with ACHN; > 100 µM (inactive) in the test with SW-620. For the same compound, the GI50 in the test on RPMI-8226 was 87.5 µM (inactive); in the test on HOP-62, > 100 µM (inactive); in the test with UO-31 it was 46.3 µM (inactive); in the test on NCI-H460 it was 47.4 µM (inactive); in the test with KM12, 35.7 µM (inactive); with MDA-MB-435, > 100 µM (inactive).
Turning to `CCOC(=O)CSc1nnc(CSc2nc(-c3ccccc3)c(-c3ccccc3)[nH]2)n1-c1ccccc1`, the GI50 was 22.1 µM (inactive) in the test with OVCAR-4; 23.4 µM (inactive) with SK-OV-3; > 69.2 µM (inactive) with Malme-3M; > 100 µM (inactive) in the test on A549; 61.9 µM (inactive) in the test with NCI/ADR-RES; 26.1 µM (inactive) in the test on SF-268. For the same compound, the GI50 was 15.4 µM (inactive) in the test with DU-145; > 61.5 µM (inactive) in the test on LOX IMVI; 48.8 µM (inactive) in the test on HT-29; 18.9 µM (inactive) in the test with SN12C; 18.3 µM (inactive) in the test with ACHN; > 100 µM (inactive) in the test with SW-620. The GI50 with RPMI-8226 is > 80.4 µM (inactive); with HOP-62, > 100 µM (inactive); with UO-31 it was 18.2 µM (inactive); with HOP-92, 40.4 µM (inactive); with NCI-H460, > 100 µM (inactive); in the test on KM12 it was > 75.9 µM (inactive). Further, the GI50 in the test with HL-60 is 49.5 µM (inactive).
With `CC(=O)OCCCCN1C(=O)CSc2ccccc21`, the GI50 with OVCAR-4, with SK-OV-3, in the test with A549, in the test on DU-145, with LOX IMVI and with SN12C was > 100 µM (inactive) in each case. In addition, the GI50 in the test on ACHN was > 100 µM (inactive); in the test on SW-620 it was > 100 µM (inactive); in the test with RPMI-8226, > 100 µM (inactive); in the test with HOP-62, > 100 µM (inactive); in the test with UO-31, 76.7 µM (inactive); in the test with HOP-92, > 100 µM (inactive). Besides, the GI50 in the test on NCI-H460, in the test on KM12, with MDA-MB-435 and in the test with HL-60 was > 100 µM (inactive) throughout.
For the compound `CCN(CCO)CC1CCCC2CCCCC21` (configuration not stated), the GI50 in the test with OVCAR-4, in the test on SK-OV-3, with Malme-3M, in the test with A549, in the test with NCI/ADR-RES and with SF-268 was > 100 µM (inactive) each time. For the same compound, the GI50 in the test on DU-145, in the test with HT-29, in the test on SN12C, in the test with ACHN, in the test with SW-620 and with RPMI-8226 was > 100 µM (inactive) throughout. The GI50 in the test with HOP-62, with UO-31, in the test on HOP-92, in the test with NCI-H460, in the test with KM12 and with MDA-MB-435 was > 100 µM (inactive) throughout.
Consider `COc1cccc(/N=N/C(=N/NC(=O)c2cc(Cl)ccc2O)c2ccc(N(CCC#N)CCC#N)cc2C)c1`, for which the GI50 with OVCAR-4 is 19.8 µM (inactive); in the test with SK-OV-3, 52 µM (inactive); with Malme-3M it was 17.5 µM (inactive); in the test on A549, 62.1 µM (inactive); with NCI/ADR-RES, 49 µM (inactive); in the test with SF-268, 47.1 µM (inactive). The GI50 with DU-145 was 43.4 µM (inactive); in the test on HT-29 it was 5.85 µM (inactive); in the test on SN12C it was 27.5 µM (inactive); in the test with ACHN, 46.3 µM (inactive); in the test with RPMI-8226, 61.2 µM (inactive); in the test with HOP-62, 66.5 µM (inactive). The GI50 in the test on UO-31 was 38.8 µM (inactive); in the test on NCI-H460 it was 32.7 µM (inactive); in the test on KM12, 28.5 µM (inactive); in the test with MDA-MB-435 it was 64.4 µM (inactive).
On to `CN(/N=C/c1ccccn1)C1=NCCCCN1`, for which the GI50 in the test on OVCAR-4, in the test on SK-OV-3, in the test with Malme-3M, with A549, with NCI/ADR-RES and with SF-268 was > 100 µM (inactive) in each case. The GI50 in the test with LOX IMVI, in the test with HT-29, in the test with ACHN, with SW-620, in the test on RPMI-8226 and with HOP-62 was > 100 µM (inactive) each time. For the same compound, the GI50 in the test with UO-31, in the test with HOP-92, with NCI-H460, with KM12, in the test with MDA-MB-435 and in the test with HL-60 was > 100 µM (inactive) throughout.
With `O=NN(CCCl)C(=O)N[C@H]1CC[C@H](CC(=O)O)CC1`, the GI50 in the test on OVCAR-4 was > 100 µM (inactive); in the test with SK-OV-3, > 100 µM (inactive); in the test on Malme-3M, > 82.2 µM (inactive); in the test with A549, 87.3 µM (inactive); with NCI/ADR-RES it was > 100 µM (inactive); in the test on SF-268, 18.5 µM (inactive). Moreover, the GI50 in the test on LOX IMVI is 22.1 µM (inactive); in the test on HT-29 it was > 100 µM (inactive); in the test on SN12C, 66.8 µM (inactive); in the test with ACHN, > 100 µM (inactive); in the test on SW-620 it was > 69.2 µM (inactive); in the test on RPMI-8226, 33.1 µM (inactive). For the same compound, the GI50 in the test on HOP-62 is > 94.6 µM (inactive); in the test on UO-31, > 100 µM (inactive); with HOP-92, > 100 µM (inactive); in the test with NCI-H460 it was 45.2 µM (inactive); with KM12, > 100 µM (inactive); in the test on HL-60 it was 29.7 µM (inactive).
As to `CC1CCC2(OC1)OC1CC3C4CC=C5CC(OC6OC(CO)C(OC7OC(C)C(OC8OC(C)C(O)C(O)C8O)C(O)C7O)C(O)C6OC6OC(C)C(O)C(O)C6O)CCC5(C)C4CCC3(C)C1C2C` (configuration not stated), the GI50 with OVCAR-4 was 0.275 µM (active); with SK-OV-3, 1.07 µM (active); in the test with Malme-3M, 0.363 µM (active); in the test with A549, 0.312 µM (active); in the test with SF-268 it was 0.56 µM (active); in the test with DU-145, 1.28 µM (inactive). Also, the GI50 in the test on LOX IMVI is 0.185 µM (active); in the test with HT-29, 1 µM (active); in the test with SN12C, 0.267 µM (active); with ACHN, 1.47 µM (inactive); in the test on SW-620, 1.48 µM (inactive); with RPMI-8226 it was 0.382 µM (active). In addition, the GI50 in the test on HOP-62 is 2.56 µM (inactive); in the test on UO-31, 0.216 µM (active); in the test with HOP-92 it was 0.0703 µM (active); in the test on NCI-H460 it was 1.61 µM (inactive); in the test with KM12 it was 0.16 µM (active); in the test with MDA-MB-435, 0.281 µM (active). Also, in the test on HL-60, the GI50 is 0.239 µM (active).
Consider `C=C1C(=O)[C@@]23CC[C@@H]4[C@@]5(C)CCC[C@@]4(OC5=O)C2(C)CC[C@]1(OC)C3` (some centres not stated), for which the GI50 is 3.27 µM (inactive) in the test on A549; 1.45 µM (inactive) in the test with NCI/ADR-RES; 2.14 µM (inactive) in the test on SF-268; 4.41 µM (inactive) with DU-145; 0.232 µM (active) in the test with LOX IMVI; 0.36 µM (active) with HT-29. For the same compound, the GI50 was 1.73 µM (inactive) in the test on SN12C; 1.77 µM (inactive) in the test with ACHN; 0.718 µM (active) in the test on SW-620; 0.205 µM (active) in the test with RPMI-8226; 1.17 µM (inactive) with HOP-62; 1.79 µM (inactive) in the test with UO-31. In addition, the GI50 in the test on NCI-H460 was 1.93 µM (inactive); in the test with KM12, 2.32 µM (inactive); in the test with MDA-MB-435, 1.32 µM (inactive).
On to `O=[N+]([O-])c1cc2ccc1OCc1cccc(n1)COc1ccc(cc1[N+](=O)[O-])/C=N\CCCCCCCC/N=C\2`, for which the GI50 in the test with OVCAR-4, in the test on Malme-3M, in the test on A549, in the test with NCI/ADR-RES, in the test with SF-268 and in the test on DU-145 was > 100 µM (inactive) throughout. For the same compound, the GI50 in the test with LOX IMVI, in the test with HT-29, with SN12C, in the test with ACHN, in the test on SW-620 and with RPMI-8226 was > 100 µM (inactive) each time. For the same compound, the GI50 in the test with HOP-62, in the test on UO-31, with HOP-92, with NCI-H460, with KM12 and in the test on MDA-MB-435 was > 100 µM (inactive) each time.
Regarding `Cc1ccc(C(=O)N/N=C(\N=N\c2ccccc2[N+](=O)[O-])c2ccc(N(C)C)cc2)cc1`, the GI50 in the test with OVCAR-4, in the test on SK-OV-3, with A549, with NCI/ADR-RES, in the test on SF-268 and in the test on LOX IMVI was > 100 µM (inactive) in each case. The GI50 was > 100 µM (inactive) in the test with HT-29; > 100 µM (inactive) in the test with SN12C; > 100 µM (inactive) in the test with ACHN; > 100 µM (inactive) in the test on SW-620; > 100 µM (inactive) in the test with RPMI-8226; 89.1 µM (inactive) in the test on UO-31. In addition, the GI50 with HOP-92 was > 100 µM (inactive); with NCI-H460 it was 66.8 µM (inactive); in the test on KM12, > 100 µM (inactive); in the test with MDA-MB-435 it was 22.8 µM (inactive); in the test with HL-60, 84.9 µM (inactive).
